Patent US11000033B2, “Ketone or oxime compound, and herbicide” (NISSAN CHEMICAL CORPORATION, priority 2014, dated 2021)

Columns and labels:
Type in all cases: in vivo
[1] = tested on: Echinochloa oryzacola Vasing.; experiment: Test Example 1: herbicidal activity, application before weed generation in submerged conditions (symbol A); details: application herbicide amount 320 g/ha
Method in brief: (§1)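 Paddy pre-emergence test. Formulated emulsion, water-diluted to a predetermined rate, is applied to floodwater on sowing day; rice transplanted at 2.5 leaves. Effect read at 3 weeks on a 0–5 herbicidal-ratio scale.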

[2] = tested on: Monochoria vaginalis; experiment: Test Example 1: herbicidal activity, application before weed generation in submerged conditions (symbol C); details: application herbicide amount 320 g/ha
Method in brief: as §1

[3] = tested on: Monochoria vaginalis; experiment: Test Example 2: herbicidal activity, application during weed generation in submerged conditions (symbol C); details: Table 23; application herbicide amount 320 g/ha; grade 0-5 by criteria of Test Example 1
Method in brief: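 Scoring of herbicidal effect took place 3 weeks after treatment, using the criteria of the earlier test. Treatment was water-surface application of diluted emulsifiable compound at a set dose. Plants were at one- to two-leaf stage in submerged alluvial soil (4 cm depth), greenhouse 25-30° C.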

[4] = tested on: Echinochloa crus-galli var. crus-galli; experiment: Test Example 4: herbicidal effect by soil treatment (symbol H); details: application herbicide amount 320 g/ha
Method in brief: (§2)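 Seeds were sown in sterilized diluvial soil, covered with about 1.5 cm of soil, and the soil surface was sprayed with a water-diluted emulsion of the compound at a predetermined rate. Plants grew in a greenhouse at 25° C. to 30° C.; effects were scored visually 3 weeks after application.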

[5] = tested on: Avena fatua; experiment: Test Example 4: herbicidal effect by soil treatment (symbol I); details: application herbicide amount 320 g/ha
Method in brief: as §2

[6] = tested on: Apera spica-venti; experiment: Test Example 4: herbicidal effect by soil treatment (symbol L); details: application herbicide amount 320 g/ha
Method in brief: as §2

[7] = tested on: Abutilon theophrasti; experiment: Test Example 4: herbicidal effect by soil treatment (symbol M); details: application herbicide amount 320 g/ha
Method in brief: as §2

[8] = tested on: soybean; experiment: Test Example 4: effect on crop by soil treatment (symbol d); details: application herbicide amount 320 g/ha
Method in brief: (§3)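 The test used sterilized diluvial soil. Seed was set down in spots and overlaid with about 1.5 cm of soil before growth in a greenhouse kept at 25° C. to 30° C.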

[9] = tested on: rice; experiment: Test Example 4: effect on crop by soil treatment (symbol b); details: application herbicide amount 320 g/ha
Method in brief: as §3

[10] = tested on: beet; experiment: Test Example 4: effect on crop by soil treatment (symbol f); details: application herbicide amount 320 g/ha
Method in brief: as §3

[11] = tested on: Setaria viridis; experiment: Test Example 5: herbicidal effect by foliage application, plastic box (symbol G); details: 320 g/ha, 3 weeks after application
Method in brief: (§4)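 Visual herbicidal score, taken three weeks post-application, of seedlings sprayed on the foliage with water-diluted emulsion at a predetermined amount; plants were 14 days old, greenhouse-raised at 25° C. to 30° C.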

[12] = tested on: Echinochloa crus-galli var. crus-galli; experiment: Test Example 5: herbicidal effect by foliage application, plastic box (symbol H); details: 320 g/ha, 3 weeks after application
Method in brief: as §4

[13] = tested on: Avena fatua; experiment: Test Example 5: herbicidal effect by foliage application, plastic box (symbol I); details: 320 g/ha, 3 weeks after application
Method in brief: as §4

[14] = tested on: Apera spica-venti; experiment: Test Example 5: herbicidal effect by foliage application, plastic box (symbol L); details: 320 g/ha, 3 weeks after application
Method in brief: as §4

[15] = tested on: corn; experiment: Test Example 5: effect on crop by foliage application, plastic box (symbol c); details: 320 g/ha, 3 weeks after application
Method in brief: (§5)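 Greenhouse test at 25° C. to 30° C. Seeds of crops and weeds were spot-sown in boxes of sterilized diluvial soil under roughly 1.5 cm soil cover, then grown for foliage treatment.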

[16] = tested on: rapeseed; experiment: Test Example 5: effect on crop by foliage application, plastic box (symbol g); details: 320 g/ha, 3 weeks after application
Method in brief: as §5

Structure (SMILES)	Herbicidal effect grade, A: Echinochloa oryzacola Vasing. [1]	Herbicidal effect grade, C: Monochoria vaginalis [2]	Herbicidal effect grade, C: Monochoria vaginalis [3]	Herbicidal effect grade, H: Echinochloa crus-galli var. crus-galli [4]	Herbicidal effect grade, I: Avena fatua [5]	Herbicidal effect grade, L: Apera spica-venti [6]	Herbicidal effect grade, M: Abutilon theophrasti [7]	Effect on crop grade, d: soybean [8]	Effect on crop grade, b: directly sowed rice plant [9]	Effect on crop grade, f: beet [10]	G: Setaria viridis, herbicidal effect (criteria of Test Example 1) [11]	H: Echinochloa crus-galli var. crus-galli, herbicidal effect (criteria of Test Example 1) [12]	I: Avena fatua, herbicidal effect (criteria of Test Example 1) [13]	L: Apera spica-venti, herbicidal effect (criteria of Test Example 1) [14]	c: corn, effect on crop (criteria of Test Example 1) [15]	g: rapeseed, effect on crop (criteria of Test Example 1) [16]	H: Echinochloa crus-galli var. crus-galli, herbicidal effect grade [4]	I: Avena fatua, herbicidal effect grade [5]	L: Apera spica-venti, herbicidal effect grade [6]	M: Abutilon theophrasti, herbicidal effect grade [7]	other results
CC(=O)CC1CC(O)=C(c2c(C)cc(-n3cccn3)cc2C)C1=O (stereo not shown) [7-024]	2 (Herbicidal ratio of 20% or higher and lower than 40%)	2 (Herbicidal ratio of 20% or higher and lower than 40%)	0 (Herbicidal ratio of 5% or lower (almost no effect))	0 (Herbicidal ratio of 5% or lower (almost no effect))	0 (Herbicidal ratio of 5% or lower (almost no effect))	0 (Herbicidal ratio of 5% or lower (almost no effect))	0 (Herbicidal ratio of 5% or lower (almost no effect))	0 (Herbicidal ratio of 5% or lower (almost no effect))	5 (Herbicidal ratio of 90% or more (almost completely withered))	0 (Herbicidal ratio of 5% or lower (almost no effect))	0 (Herbicidal ratio of 5% or lower (almost no effect))	5 (Herbicidal ratio of 90% or more (almost completely withered))	2 (Herbicidal ratio of 20% or higher and lower than 40%)	1 (Herbicidal ratio of 5% or higher and lower than 20%)	1 (Herbicidal ratio of 5% or higher and lower than 20%)	2 (Herbicidal ratio of 20% or higher and lower than 40%)					
CON=C(C)CC1CC(OCOC(=O)c2ccccc2)=C(c2c(C)cc(-c3ccc(Cl)cc3)cc2C)C1=O (stereo not shown) [6-083]	5 (Herbicidal ratio of 90% or more (almost completely withered))	4 (Herbicidal ratio of 70% or higher and lower than 90%)	4 (Herbicidal ratio of 70% or higher and lower than 90%)								5 (Herbicidal ratio of 90% or more (almost completely withered))	5 (Herbicidal ratio of 90% or more (almost completely withered))	5 (Herbicidal ratio of 90% or more (almost completely withered))	5 (Herbicidal ratio of 90% or more (almost completely withered))	5 (Herbicidal ratio of 90% or more (almost completely withered))	4 (Herbicidal ratio of 70% or higher and lower than 90%)	0 (Herbicidal ratio of 5% or lower (almost no effect))	0 (Herbicidal ratio of 5% or lower (almost no effect))	5 (Herbicidal ratio of 90% or more (almost completely withered))	0 (Herbicidal ratio of 5% or lower (almost no effect))	d: soybean, effect on crop grade [8]: 0 (Herbicidal ratio of 5% or lower (almost no effect)); b: directly sowed rice plant, effect on crop grade [9]: 0 (Herbicidal ratio of 5% or lower (almost no effect)); f: beet, effect on crop grade [10]: 0 (Herbicidal ratio of 5% or lower (almost no effect))
CC(=O)CC1CC(O)=C(c2c(C)cc(OCc3ccccc3)cc2C)C1=O (stereo not shown) [7-018]	2 (Herbicidal ratio of 20% or higher and lower than 40%)	0 (Herbicidal ratio of 5% or lower (almost no effect))	0 (Herbicidal ratio of 5% or lower (almost no effect))	0 (Herbicidal ratio of 5% or lower (almost no effect))	0 (Herbicidal ratio of 5% or lower (almost no effect))	0 (Herbicidal ratio of 5% or lower (almost no effect))	0 (Herbicidal ratio of 5% or lower (almost no effect))	0 (Herbicidal ratio of 5% or lower (almost no effect))	0 (Herbicidal ratio of 5% or lower (almost no effect))	0 (Herbicidal ratio of 5% or lower (almost no effect))	4 (Herbicidal ratio of 70% or higher and lower than 90%)	4 (Herbicidal ratio of 70% or higher and lower than 90%)	0 (Herbicidal ratio of 5% or lower (almost no effect))	2 (Herbicidal ratio of 20% or higher and lower than 40%)	1 (Herbicidal ratio of 5% or higher and lower than 20%)	0 (Herbicidal ratio of 5% or lower (almost no effect))					
CON=C(C)CC1CC(O)=C(c2c(C)cc(-c3ccc(Cl)cc3)cc2OC)C1=O (stereo not shown) [6-077, 2-(4′-chloro-3-methoxy-5-methyl-[1,1′-biphenyl]-4-yl)-3-hydroxy-5-{2-(methoxyimino)propyl}cyclopent-2-enone]	5 (Herbicidal ratio of 90% or more (almost completely withered))	3 (Herbicidal ratio of 40% or higher and lower than 70%)	3 (Herbicidal ratio of 40% or higher and lower than 70%)								5 (Herbicidal ratio of 90% or more (almost completely withered))	5 (Herbicidal ratio of 90% or more (almost completely withered))	5 (Herbicidal ratio of 90% or more (almost completely withered))	5 (Herbicidal ratio of 90% or more (almost completely withered))	5 (Herbicidal ratio of 90% or more (almost completely withered))	5 (Herbicidal ratio of 90% or more (almost completely withered))	5 (Herbicidal ratio of 90% or more (almost completely withered))	4 (Herbicidal ratio of 70% or higher and lower than 90%)	5 (Herbicidal ratio of 90% or more (almost completely withered))	5 (Herbicidal ratio of 90% or more (almost completely withered))	d: soybean, effect on crop grade [8]: 0 (Herbicidal ratio of 5% or lower (almost no effect)); b: directly sowed rice plant, effect on crop grade [9]: 5 (Herbicidal ratio of 90% or more (almost completely withered)); f: beet, effect on crop grade [10]: 1 (Herbicidal ratio of 5% or higher and lower than 20%)
